Consider ten compounds from ChEMBL document CHEMBL4425144, “Discovery and Structural Optimization of N5-Substituted 6,7-Dioxo-6,7-dihydropteridines as Potent and Selective Epidermal Growth Factor Receptor (EGFR) Inhibitors against L858R/T790M Resistance Mutation” (J Med Chem, 2016).

The test system of data set [1] is NCI-H1975. Nature of the data set: Antiproliferative activity against human NCI-H1975 cells incubated for 72 hrs by SRB assay. In kind it is functional, cell-based. The conditions noted are these: NCI-H1975, 72 h. (Sulforhodamine B stains cellular protein and so reports cell mass.)
Data set [2] in a line: Dissociation constant, pKa of the compound by Sirius T3 based assay. In kind it is physicochemical.
The target in data set [3] is Epidermal growth factor receptor (Homo sapiens, UniProt P00533, L858R/T790M). Briefly: Inhibition of EGFR kinase domain L858R/T790M mutant (unknown origin) expressed using baculovirus expression system incubated for 1 hr using Poly(Glu,Tyr) 4:1 by ELISA method. Background: In an ELISA, binding on a coated surface is turned into a signal by an enzyme label.
Chain of Epidermal growth factor receptor (Homo sapiens, UniProt P00533, L858R/T790M) (P00533 25-1210 T790M/L858R limits assumed): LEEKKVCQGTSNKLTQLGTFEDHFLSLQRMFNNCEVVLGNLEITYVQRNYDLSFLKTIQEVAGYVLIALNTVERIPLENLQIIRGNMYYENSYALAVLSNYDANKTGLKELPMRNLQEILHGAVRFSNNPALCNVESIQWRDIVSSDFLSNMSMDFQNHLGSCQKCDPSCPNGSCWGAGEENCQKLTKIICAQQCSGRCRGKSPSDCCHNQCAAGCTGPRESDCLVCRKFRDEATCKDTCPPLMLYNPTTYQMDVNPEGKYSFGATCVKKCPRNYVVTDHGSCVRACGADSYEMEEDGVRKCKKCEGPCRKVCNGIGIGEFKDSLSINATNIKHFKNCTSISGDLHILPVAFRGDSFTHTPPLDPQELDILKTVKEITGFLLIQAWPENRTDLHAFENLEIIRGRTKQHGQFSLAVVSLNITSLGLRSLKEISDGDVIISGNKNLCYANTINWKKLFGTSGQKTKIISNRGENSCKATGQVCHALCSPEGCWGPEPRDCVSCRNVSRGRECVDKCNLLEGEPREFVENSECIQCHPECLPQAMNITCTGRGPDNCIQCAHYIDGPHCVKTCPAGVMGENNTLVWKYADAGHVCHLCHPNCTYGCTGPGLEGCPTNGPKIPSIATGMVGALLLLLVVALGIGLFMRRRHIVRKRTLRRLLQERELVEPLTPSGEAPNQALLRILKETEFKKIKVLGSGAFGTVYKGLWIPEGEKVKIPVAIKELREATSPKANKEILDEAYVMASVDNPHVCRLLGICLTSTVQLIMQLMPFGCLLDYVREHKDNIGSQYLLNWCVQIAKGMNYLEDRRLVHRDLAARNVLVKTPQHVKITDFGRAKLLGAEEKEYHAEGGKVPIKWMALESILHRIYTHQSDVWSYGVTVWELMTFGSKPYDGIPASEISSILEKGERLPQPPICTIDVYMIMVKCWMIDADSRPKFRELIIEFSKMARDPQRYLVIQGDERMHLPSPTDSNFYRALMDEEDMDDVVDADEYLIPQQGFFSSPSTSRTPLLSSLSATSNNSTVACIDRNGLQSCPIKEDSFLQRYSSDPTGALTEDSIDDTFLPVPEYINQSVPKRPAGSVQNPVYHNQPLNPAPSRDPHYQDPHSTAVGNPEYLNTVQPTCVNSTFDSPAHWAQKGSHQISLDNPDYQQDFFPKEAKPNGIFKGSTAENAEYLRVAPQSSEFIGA
Data set [4] can be described thus: Thermodynamic solubility of the compound in 0.1M PBS buffer at pH 7.4 by UV-visible spectrophotometry. The data set is classed as physicochemical. The settings on record: read-out: Therm_solubility.
Data set [5] concerns the target Epidermal growth factor receptor (Homo sapiens, UniProt P00533). Briefly: Inhibition of wild type EGFR kinase domain (unknown origin) expressed using baculovirus expression system incubated for 1 hr using Poly(Glu,Tyr) 4:1 by ELISA method.
Data set [6] has as its system A-431. Nature of the data set: Antiproliferative activity against human A431 cells incubated for 72 hrs by SRB assay. The conditions noted are these: A-431, 72 h. The data set is classed as functional, cell-based.
Data set [7] has as its system A-431. Briefly: Antitumor activity against human A431 cells xenografted in BALB/c mouse assessed as inhibition of tumor growth at 25 mg/kg, po qd for 14 consecutive days. In kind it is functional. The settings on record: A-431, po, read-out: TGI. (In general: A xenograft is tissue or cells of one species grown in another, often human tumour cells in immunodeficient mice.)

In brackets after ≈: the same amount, converted by molar mass.

Chain of Epidermal growth factor receptor (Homo sapiens, UniProt P00533) (P00533 whole entry, the tested form may be a part): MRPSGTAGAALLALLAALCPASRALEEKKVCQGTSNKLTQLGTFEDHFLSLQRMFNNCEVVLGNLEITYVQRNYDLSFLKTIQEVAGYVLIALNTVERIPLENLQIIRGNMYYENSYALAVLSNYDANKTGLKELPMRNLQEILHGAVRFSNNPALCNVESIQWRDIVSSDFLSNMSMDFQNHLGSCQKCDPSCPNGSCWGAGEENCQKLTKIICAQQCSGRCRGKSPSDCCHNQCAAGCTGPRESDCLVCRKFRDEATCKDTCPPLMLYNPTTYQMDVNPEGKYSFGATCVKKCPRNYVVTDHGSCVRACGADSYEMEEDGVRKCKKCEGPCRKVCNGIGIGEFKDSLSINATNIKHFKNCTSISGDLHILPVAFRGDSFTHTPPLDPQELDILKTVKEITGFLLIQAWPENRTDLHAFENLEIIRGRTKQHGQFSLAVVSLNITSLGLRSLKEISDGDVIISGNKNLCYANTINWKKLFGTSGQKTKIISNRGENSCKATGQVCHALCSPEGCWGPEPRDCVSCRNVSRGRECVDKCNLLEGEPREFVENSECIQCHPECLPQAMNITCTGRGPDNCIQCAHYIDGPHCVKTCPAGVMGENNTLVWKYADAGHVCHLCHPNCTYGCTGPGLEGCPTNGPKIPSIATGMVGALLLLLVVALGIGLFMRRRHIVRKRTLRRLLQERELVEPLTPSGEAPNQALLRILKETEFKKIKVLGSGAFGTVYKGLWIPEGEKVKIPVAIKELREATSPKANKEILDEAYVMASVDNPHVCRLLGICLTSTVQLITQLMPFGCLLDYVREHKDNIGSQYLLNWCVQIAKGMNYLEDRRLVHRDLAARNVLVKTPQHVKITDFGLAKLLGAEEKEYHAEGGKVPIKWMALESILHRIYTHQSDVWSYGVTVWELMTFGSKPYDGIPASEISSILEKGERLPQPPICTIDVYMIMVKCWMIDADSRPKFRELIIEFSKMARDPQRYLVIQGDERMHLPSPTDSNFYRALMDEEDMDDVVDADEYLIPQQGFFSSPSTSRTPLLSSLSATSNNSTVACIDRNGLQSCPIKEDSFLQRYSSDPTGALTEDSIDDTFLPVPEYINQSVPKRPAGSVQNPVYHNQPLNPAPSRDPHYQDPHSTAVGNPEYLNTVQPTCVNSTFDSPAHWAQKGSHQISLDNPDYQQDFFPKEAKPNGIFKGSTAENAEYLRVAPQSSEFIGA

By IC50 is commonly meant the midpoint of a concentration-inhibition curve. A lower IC50 goes with higher potency. Broadly, the pKa is the negative logarithm of the acid dissociation constant. Read a high pKa as a weaker acid or stronger base. In the case of `C=CC(=O)Nc1cccc(-n2c(=O)c(=O)n(CC)c3cnc(Nc4ccc(N5CCN(C)CC5)cc4OC)nc32)c1`, the IC50 in data set [1] was determined as 126 nM; in data set [3] it was 1.2 nM; in data set [5] it was 81 nM; in data set [6], 8820 nM. The pKa in data set [2] is 7.4. Moreover, the solubility thermodynamic in data set [4] is < 10 µg/mL.
As for `C=CC(=O)Nc1cccc(-n2c(=O)c(=O)n(C(C)C)c3cnc(Nc4ccc(N5CCN(C)CC5)c(OC)c4)nc32)c1`, the IC50 turned out to be 213 nM in data set [1], 1.3 nM in data set [3], 8.6 nM in data set [5] and 669 nM in data set [6]. Further, the pKa in data set [2] came to 8.4. Besides, the solubility thermodynamic in data set [4] was 298 µg/mL (≈ 522 µM).
Turning to `C=CC(=O)Nc1cccc(-n2c(=O)c(=O)n(C(C)C)c3cnc(Nc4ccc(N5CCN(C)CC5)c(C)c4)nc32)c1`, the IC50 in data set [1] is 151 nM; in data set [3], 1.5 nM; in data set [5] it was 1.4 nM; in data set [6], 309 nM. The pKa in data set [2] was 8.1. In data set [4], the solubility thermodynamic is 190 µg/mL (≈ 343 µM).
Take `C=CC(=O)Nc1cccc(-n2c(=O)c(=O)n(CCC)c3cnc(Nc4ccc(N5CCN(C)CC5)cc4OC)nc32)c1`: the 50% inhibitory concentration (IC50) was found to be 119 nM in data set [1], 0.6 nM in data set [3], 2.2 nM in data set [5] and 2140 nM in data set [6]. In addition, the pKa in data set [2] came to 7.5. Moreover, the solubility thermodynamic in data set [4] was < 10 µg/mL.
Consider `C=CC(=O)Nc1cccc(-n2c(=O)c(=O)n(C(C)C)c3cnc(Nc4ccc(N(C)CCN(C)C)cc4OC)nc32)c1`, for which the IC50 in data set [1] was determined as 440 nM; in data set [3] it was 17 nM; in data set [5] it was 223 nM; in data set [6] it was 1530 nM. Further, the pKa in data set [2] came out at 8.9. Besides, in data set [4], the solubility thermodynamic was found to be 1620 µg/mL (≈ 2830 µM).
In the case of `C=CC(=O)Nc1cccc(-n2c(=O)c(=O)[nH]c3cnc(Nc4ccc(N5CCN(C)CC5)cc4OC)nc32)c1`, the concentration for half-maximal inhibition (IC50) in data set [1] is > 10000 nM; in data set [3] it was 2.5 nM; in data set [5], 2.8 nM; in data set [6], > 10000 nM. The compound also came in with a pKa in data set [2] of 7.8. For the same compound, in data set [4], the solubility thermodynamic amounted to 839 µg/mL (≈ 1590 µM).
As to `C=CC(=O)Nc1cccc(-n2c(=O)c(=O)n(C(C)C)c3cnc(Nc4ccc(OCCN(C)C)cc4OC)nc32)c1`, the IC50 in data set [1] is 415 nM; in data set [3], 143 nM; in data set [5], 68 nM; in data set [6], 1500 nM. The pKa in data set [2] was found to be 8.8. Also, the solubility thermodynamic in data set [4] came out at 437 µg/mL (≈ 781 µM).
Regarding `C=CC(=O)Nc1cccc(-n2c(=O)c(=O)n(C(C)C)c3cnc(Nc4ccc(N5CCC(N6CCN(C)CC6)CC5)cc4OC)nc32)c1`, the concentration for half-maximal inhibition (IC50) in data set [1] is 1190 nM; in data set [3], 7.8 nM; in data set [5], 28 nM; in data set [6], 2260 nM. Also, in data set [2], the pKa amounted to 8.8. For the same compound, the solubility thermodynamic in data set [4] came to 109 µg/mL (≈ 167 µM).
`C=CC(=O)Nc1cccc(-n2c(=O)c(=O)n(C)c3cnc(Nc4ccc(N5CCN(C)CC5)cc4OC)nc32)c1`: the half-maximal inhibitory concentration (IC50) is 1770 nM in data set [1], 4.7 nM in data set [3], 474 nM in data set [5] and > 10000 nM in data set [6]. The same compound registered a pKa in data set [2] of 7.3. The solubility thermodynamic in data set [4] came to 392 µg/mL (≈ 722 µM).
Consider `CN(C)C/C=C/C(=O)Nc1cc2c(Nc3ccc(F)c(Cl)c3)ncnc2cc1O[C@H]1CCOC1` [AFATINIB], for which the inhibition in vivo at 25 mg/kg in data set [7] is 94%.
